According to PMC8632988, “Inhibition of SYK and cSrc kinases can protect bone and cartilage in preclinical models of osteoarthritis and rheumatoid arthritis” (Scientific Reports, 2021):

Assays:
THP-1 cells = test: Inhibition of TNF-α secretion by activated monocytes; format: cell-based; conditions: Homo sapiens, differentiated monocytes, IgG-coated plates, read-out: IC50, inhibition of TNF-α release
Experimental: The assay was performed at A. N. Bakh Institute of Biochemistry, Russia. Human leukemia monocytic THP-1 cells obtained from Russian collection cell cultures (RCCC) were cultured in 5% CO2 humidified atmosphere at 37 °C in RPMI 1640 supplemented with 100 U mL^–1 penicillin/streptomycin, 2% FBS and 20 μM β-mercaptoethanol. THP-1 cells were incubated in 5% CO2 atmosphere at 37 °C in RPMI 1640 medium. To induce differentiation the cells were treated with IFN-g for six days. 96-well culture plate coated with combined human IgG were incubated during night at 4 °C (or for 1 h at 37 °C). To evaluate baseline cell simulation F(ab’)2 was used as a negative control in part of wells. Unbounded antibodies were removed with sodium-phosphate buffer. A solution of test compound (MT-SYK-03 or) and differentiated cells in cultivating medium were added in each well. […] Each concentration was tested in triplicate; the experiment was replicated twice. For dose–response curve see Fig. S3.

[1] = system: Wistar rats, MIA osteoarthritis model; test: Monosodium iodoacetate induced osteoarthritis in rats; format: in vivo, rat
Experimental: Monosodium iodoacetate (MIA) osteoarthritis model was performed at Pharmenterprises, Russia according to the known procedure[32] and approved by Ethics Committee of Pharmenterprises. Male 10 week old Wistar rats were divided into eight groups: negative control (#1), positive control (#2) and six treatment groups (#3–8), ten rats in each group. Group #1 was left intact while rats in groups #2–8 were anesthetized on the day 0 with intraperitoneal injection of Zoletil and Xylazine mixture and given a single intra-articular injection of MIA through the infrapatellar ligament of the right knee. Rats were treated as follows: (#1, #2) 0.5% solution of methylcellulose in PBS (pH = 3) as vehicle control, (#3, #5) 100 mg/kg MT-SYK-03, (#4, #6) 500 mg/kg MT-SYK-03, (#7) 50 mg/kg nalgesin and (#8) 0.1 mg/kg zoledronic acid. Rats in groups #1–4 received treatment intragastrically QD, 25 and 1 h before the MIA injection, and then daily until the end of the study on the day 28. Rats in groups #5–6 received treatment intragastrically QD from the day 7 until the end of the study. Rats in group #7 were treated QD starting on the day 14 and until the end of the study. Finally, rats in group #8 were treated subcutaneously immediately after the MIA injection and then every third day until the study end. Disease progression was monitored by measuring mechanical hyperalgesia, mechanical allodynia and grip strength of hind paws on the days 14, 21, and 28, just before the treatment, and 1, 3, 6 h after it.

[2] = MT-SYK-03 100 mg/kg, 7–28 days QD, 14 day, 1 hour after admin.
[3] = MT-SYK-03 100 mg/kg, 7–28 days QD, 14 day, 3 hours after admin.
[4] = MT-SYK-03 100 mg/kg, 7–28 days QD, 21 day, 1 hour after admin.
[5] = MT-SYK-03 100 mg/kg, 7–28 days QD, 21 day, 3 hours after admin.
[6] = MT-SYK-03 100 mg/kg, 7–28 days QD, 28 day, 1 hour after admin.
[7] = MT-SYK-03 100 mg/kg, 7–28 days QD, 28 day, 3 hours after admin.
[8] = MT-SYK-03 100 mg/kg, −1–28 days QD, 14 day, 1 hour after admin.
[9] = MT-SYK-03 100 mg/kg, −1–28 days QD, 14 day, 3 hours after admin.
[10] = MT-SYK-03 100 mg/kg, −1–28 days QD, 21 day, 1 hour after admin.
[11] = MT-SYK-03 100 mg/kg, −1–28 days QD, 21 day, 3 hours after admin.
[12] = MT-SYK-03 100 mg/kg, −1–28 days QD, 28 day, 1 hour after admin.
[13] = MT-SYK-03 100 mg/kg, −1–28 days QD, 28 day, 3 hours after admin.
[14] = MT-SYK-03 500 mg/kg, 7–28 days QD, 14 day, 1 hour after admin.
[15] = MT-SYK-03 500 mg/kg, 7–28 days QD, 14 day, 3 hours after admin.
[16] = MT-SYK-03 500 mg/kg, 7–28 days QD, 21 day, 1 hour after admin.
[17] = MT-SYK-03 500 mg/kg, 7–28 days QD, 21 day, 3 hours after admin.
[18] = MT-SYK-03 500 mg/kg, 7–28 days QD, 28 day, 1 hour after admin.
[19] = MT-SYK-03 500 mg/kg, 7–28 days QD, 28 day, 3 hours after admin.
[20] = MT-SYK-03 500 mg/kg, −1–28 days QD, 14 day, 1 hour after admin.
[21] = MT-SYK-03 500 mg/kg, −1–28 days QD, 14 day, 3 hours after admin.
[22] = MT-SYK-03 500 mg/kg, −1–28 days QD, 21 day, 1 hour after admin.
[23] = MT-SYK-03 500 mg/kg, −1–28 days QD, 21 day, 3 hours after admin.
[24] = MT-SYK-03 500 mg/kg, −1–28 days QD, 28 day, 1 hour after admin.
[25] = MT-SYK-03 500 mg/kg, −1–28 days QD, 28 day, 3 hours after admin.

Structure (SMILES): COc1cc(Nc2ncnc(Nc3cc4c(cn3)NC(=O)C(C)(C)O4)n2)cc(OC)c1OC [MT-SYK-03]
- IC50 (THP-1 cells): 480 nM
- hind paws grip strength [1, 2]: 70.1 ± 10.8 % from the initial one
- mechanical allodynia pain threshold [1, 2]: 70.2±7.7 % from the initial one
- mechanical hyperalgesia [1, 2]: 51.9 ± 4.1 & % from the initial one
- hind paws grip strength [1, 3]: 58.9 ± 7.8 & % from the initial one
- mechanical allodynia pain threshold [1, 3]: 78.7±10.6 % from the initial one
- mechanical hyperalgesia [1, 3]: 50.6 ± 5.6 & % from the initial one
- hind paws grip strength [1, 4]: 76.3 ± 6.2 & % from the initial one
- mechanical allodynia pain threshold [1, 4]: 75.3±15.4 % from the initial one
- mechanical hyperalgesia [1, 4]: 85.1 ± 5 % from the initial one
- hind paws grip strength [1, 5]: 62.56 ± 7.58 % from the initial one
- mechanical allodynia pain threshold [1, 5]: 73.1±7.9 % from the initial one
- mechanical hyperalgesia [1, 5]: 73.5 ± 6.9 & % from the initial one
- hind paws grip strength [1, 6]: 74.4 ± 13.0 % from the initial one
- mechanical allodynia pain threshold [1, 6]: 61.7±5.8 % from the initial one
- mechanical hyperalgesia [1, 6]: 67.7 ± 9.8 & % from the initial one
- hind paws grip strength [1, 7]: 58.1 ± 10.0 % from the initial one
- mechanical allodynia pain threshold [1, 7]: 78.3±8 % from the initial one
- mechanical hyperalgesia [1, 7]: 71.24 ± 7.99 % from the initial one
- hind paws grip strength [1, 8]: 56.3 ± 5.2 & % from the initial one
- mechanical allodynia pain threshold [1, 8]: 136.3±22.5 & % from the initial one
- mechanical hyperalgesia [1, 8]: 73.5 ± 10.5 & % from the initial one
- hind paws grip strength [1, 9]: 58.7 ± 8.2 & % from the initial one
- mechanical allodynia pain threshold [1, 9]: 136.7±29.2 & % from the initial one
- mechanical hyperalgesia [1, 9]: 63.9 ± 7.5 & % from the initial one
- hind paws grip strength [1, 10]: 76.5 ± 4.5 & % from the initial one
- mechanical allodynia pain threshold [1, 10]: 107.7±12.8 & % from the initial one
- mechanical hyperalgesia [1, 10]: 74.4 ± 3.3 &# % from the initial one
- hind paws grip strength [1, 11]: 72.69 ± 9.18 % from the initial one
- mechanical allodynia pain threshold [1, 11]: 95.5±4.7 & % from the initial one
- mechanical hyperalgesia [1, 11]: 80.5 ± 10.3 % from the initial one
- hind paws grip strength [1, 12]: 90.5 ± 14.0 % from the initial one
- mechanical allodynia pain threshold [1, 12]: 135.8±27.6 & % from the initial one
- mechanical hyperalgesia [1, 12]: 65.1 ± 7.4 & % from the initial one
- hind paws grip strength [1, 13]: 88.6 ± 18.5 % from the initial one
- mechanical allodynia pain threshold [1, 13]: 110.3±16.3 % from the initial one
- mechanical hyperalgesia [1, 13]: 67.38 ± 9.74 & % from the initial one
- hind paws grip strength [1, 14]: 68.2 ± 11.3 % from the initial one
- mechanical allodynia pain threshold [1, 14]: 75.7±3.6 % from the initial one
- mechanical hyperalgesia [1, 14]: 51.1 ± 5.4 & % from the initial one
- hind paws grip strength [1, 15]: 78.6 ± 12.1 % from the initial one
- mechanical allodynia pain threshold [1, 15]: 82.7±12.8 % from the initial one
- mechanical hyperalgesia [1, 15]: 77.5 ± 6.9 & % from the initial one
- hind paws grip strength [1, 16]: 67.7 ± 7.9 & % from the initial one
- mechanical allodynia pain threshold [1, 16]: 74.5±13.9 % from the initial one
- mechanical hyperalgesia [1, 16]: 56 ± 7.2 & % from the initial one
- hind paws grip strength [1, 17]: 68.23 ± 6.84 % from the initial one
- mechanical allodynia pain threshold [1, 17]: 78.9±6.8 % from the initial one
- mechanical hyperalgesia [1, 17]: 58.5 ± 7.1 & % from the initial one
- hind paws grip strength [1, 18]: 82.8 ± 9.5 % from the initial one
- mechanical allodynia pain threshold [1, 18]: 198.4±40.1 & % from the initial one
- mechanical hyperalgesia [1, 18]: 75 ± 6.1 & % from the initial one
- hind paws grip strength [1, 19]: 79.8 ± 4.3 % from the initial one
- mechanical allodynia pain threshold [1, 19]: 161.1±30.5 & % from the initial one
- mechanical hyperalgesia [1, 19]: 78.02 ± 9.37 % from the initial one
- hind paws grip strength [1, 20]: 62.8 ± 9.9 % from the initial one
- mechanical allodynia pain threshold [1, 20]: 113.9±9.7 & % from the initial one
- mechanical hyperalgesia [1, 20]: 53.8 ± 4.4 & % from the initial one
- hind paws grip strength [1, 21]: 70.3 ± 7.0 & % from the initial one
- mechanical allodynia pain threshold [1, 21]: 111.1±17.7 & % from the initial one
- mechanical hyperalgesia [1, 21]: 52.5 ± 3.3 & % from the initial one
- hind paws grip strength [1, 22]: 89.6 ± 8.7 % from the initial one
- mechanical allodynia pain threshold [1, 22]: 105.8±13 & % from the initial one
- mechanical hyperalgesia [1, 22]: 75.4 ± 6.4 % from the initial one
- hind paws grip strength [1, 23]: 76.56 ± 4.83 % from the initial one
- mechanical allodynia pain threshold [1, 23]: 98.1±5.7 & % from the initial one
- mechanical hyperalgesia [1, 23]: 64.7 ± 4.3 & % from the initial one
- hind paws grip strength [1, 24]: 86.3 ± 8.3 % from the initial one
- mechanical allodynia pain threshold [1, 24]: 106.7±12 & % from the initial one
- mechanical hyperalgesia [1, 24]: 53.5 ± 3.8 & % from the initial one
- hind paws grip strength [1, 25]: 82.3 ± 12.7 % from the initial one
- mechanical allodynia pain threshold [1, 25]: 99.2±5.5 & % from the initial one
- mechanical hyperalgesia [1, 25]: 61.04 ± 1.81 & % from the initial one
- hind paws grip strength ([1]; rat MIA, days 14, 21, 28): trend toward restoration of hind paws grip strength
- Mechanical hyperalgesia pain threshold ([1]; rat MIA, prophylactic administration, 100 and 500 mg/kg): statistically significant increase of pain thresholds for both doses from day 14
- mechanical allodynia pain threshold ([1]; rat MIA, prophylactic treatment regimen): on day 14 pain threshold was elevated in all measurements
- Mechanical hyperalgesia pain threshold ([1]; rat MIA, therapeutic treatment regimen): statistically significant improvement appeared only on day 28 for higher dose
- mechanical allodynia pain threshold ([1]; rat MIA, treatment regimen): statistically significant on day 28 and only in the higher dose
